Measured values published in ChEMBL document CHEMBL1201862, “PubChem BioAssay data set” (2004).
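Interpolation was linear, between the two tested concentrations surrounding the appropriate level; five concentrations were tested over 48 hours in 96-well plates. The concentration for 50% growth inhibition is given as GI50.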 Active and inactive are the calls of the source. No stated cut-off is given here; in the data, active = GI50 up to about 1.1 µM and inactive = higher.

Assays:
Test in all cases: inhibition of tumour cell growth, NCI panel, 48 h
[1] = tested on: M14
[2] = tested on: KM12
[3] = tested on: SNB-75
[4] = tested on: KM-20L2
[5] = tested on: NCI-H226
[6] = tested on: SNB-78
[7] = tested on: OVCAR-3
[8] = tested on: DLD-1
[9] = tested on: SF-295
[10] = tested on: SK-MEL-28
[11] = tested on: HOP-18
[12] = tested on: EKVX
[13] = tested on: CCRF-CEM
[14] = tested on: LOX IMVI
[15] = tested on: RPMI-8226
[16] = tested on: HL-60
[17] = tested on: SN12C
[18] = tested on: OVCAR-4
[19] = tested on: SK-MEL-5
[20] = tested on: SK-OV-3
[21] = tested on: HCT-15
[22] = tested on: OVCAR-8
[23] = tested on: IGROV-1
[24] = tested on: UACC-62
[25] = tested on: OVCAR-5
[26] = tested on: SW-620
[27] = tested on: A549
[28] = tested on: UACC-257
[29] = tested on: COLO 205
[30] = tested on: HCT-116
[31] = tested on: NCI-H460
[32] = tested on: SF-268
[33] = tested on: SF-539
[34] = tested on: HOP-92
[35] = tested on: RXF 631
[36] = tested on: RXF 393
[37] = tested on: CAKI-1
[38] = tested on: SR
[39] = tested on: HOP-62
[40] = tested on: A498
[41] = tested on: HT-29
[42] = tested on: K562
[43] = tested on: U-251
[44] = tested on: NCI-H23
[45] = tested on: ACHN
[46] = tested on: M19-MEL
[47] = tested on: UO-31
[48] = tested on: NCI-H522
[49] = tested on: 786-0
[50] = tested on: SK-MEL-2
[51] = tested on: TK-10
[52] = tested on: DMS-114
[53] = tested on: LXFL 529
[54] = tested on: HCC 2998
[55] = tested on: SNB-19
[56] = tested on: Malme-3M
[57] = tested on: DMS-273
[58] = tested on: XF498
[59] = tested on: MOLT-4

## CC1=C(C(=O)Nc2ccccc2C)C(c2ccc(Cl)c(Cl)c2)C(C(=O)Nc2ccccc2C)=C(C)N1
[1]
  GI50: 16.6 µM (inactive)
[2]
  GI50: 26.2 µM (inactive)
[3]
  GI50: 36.5 µM (inactive)
[4]
  GI50: 16.1 µM (inactive)
[5]
  GI50: 15.2 µM (inactive)
[6]
  GI50: 29.4 µM (inactive)
[7]
  GI50: 17.6 µM (inactive)
[8]
  GI50: 27.9 µM (inactive)
[9]
  GI50: 21.6 µM (inactive)
[10]
  GI50: 25.8 µM (inactive)
[11]
  GI50: 22.9 µM (inactive)
[12]
  GI50: 34.1 µM (inactive)
[13]
  GI50: 22.7 µM (inactive)
[14]
  GI50: 20.9 µM (inactive)
[15]
  GI50: 16.1 µM (inactive)
[16]
  GI50: 15.1 µM (inactive)
[17]
  GI50: 18.7 µM (inactive)
[18]
  GI50: 16.4 µM (inactive)
[19]
  GI50: 17.5 µM (inactive)
[20]
  GI50: 22.9 µM (inactive)
[21]
  GI50: 17.2 µM
[22]
  GI50: 37.2 µM (inactive)
[23]
  GI50: 19 µM (inactive)
[24]
  GI50: 17.4 µM (inactive)
[25]
  GI50: 23.1 µM (inactive)
[26]
  GI50: 31.6 µM (inactive)
[27]
  GI50: 24.2 µM (inactive)
[28]
  GI50: 19.9 µM (inactive)
[29]
  GI50: 16.4 µM (inactive)
[30]
  GI50: 16 µM (inactive)
[31]
  GI50: 15.8 µM (inactive)
[32]
  GI50: 20.3 µM (inactive)
[33]
  GI50: 25.5 µM (inactive)
[34]
  GI50: 14.4 µM (inactive)
[35]
  GI50: 19.8 µM (inactive)
[36]
  GI50: 20.1 µM (inactive)
[37]
  GI50: 26.7 µM (inactive)
[38]
  GI50: 12.7 µM (inactive)
[39]
  GI50: 28.6 µM (inactive)
[40]
  GI50: 27.5 µM (inactive)
[41]
  GI50: 20 µM (inactive)
[42]
  GI50: 20.3 µM (inactive)
[43]
  GI50: 19.3 µM (inactive)
[44]
  GI50: 19.8 µM (inactive)
[45]
  GI50: 27.3 µM (inactive)
[46]
  GI50: 19.7 µM (inactive)
[47]
  GI50: 25.7 µM (inactive)
[48]
  GI50: 14.5 µM (inactive)
[49]
  GI50: 24.7 µM (inactive)
[50]
  GI50: 16.1 µM (inactive)
[51]
  GI50: 21.7 µM (inactive)
[52]
  GI50: 17.4 µM (inactive)
[53]
  GI50: 14.4 µM (inactive)
[54]
  GI50: 25.6 µM (inactive)
[55]
  GI50: 44.2 µM (inactive)
[56]
  GI50: 22.5 µM (inactive)
[57]
  GI50: 16.7 µM (inactive)
[58]
  GI50: 26.2 µM (inactive)
[59]
  GI50: 12.6 µM (inactive)
